# Experiments:
# annual morning glory [1] = assay: Postemergent control of plant species; assay type: in vivo, Ipomoea spp.; details: Ipomoea, post-emergence, 336 h, read-out: percent postemergent control
# In short: (§1)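 Growth reduction versus untreated plants of each species, scored about two weeks after spraying, defines control here. Test emulsions contained compound in acetone diluted 1:1 into water bearing 0.1% surfactant; plants were treated at the 2-4 leaf stage in the greenhouse.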
# barnyardgrass [2] = assay: Control of aquatic plant species (paddy water); assay type: in vivo, Echinochloa crusgalli; details: Echinochloa crus-galli, 216 h; 1.0 Kg/Ha, nine days; read-out: Percent control
# Experimental: In testing for such utility, the plant species to be tested were transplanted into 16 oz. containers into about 2 inches of soil when they were in the 1-2 inch stage and then flooded to a depth of about 1 inch. An acetone concentrate of the chemical to be tested was then injected into the paddy water, the volume injected being varied as desired to provide the desired concentration. Percent control was evaluated nine days after application.
# yellow nutsedge = assay: Control of aquatic plant species (paddy water); assay type: in vivo, Cyperus esculentus; details: Cyperus, 216 h; 1.0 Kg/Ha, nine days; read-out: Percent control
# In short: (§2)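 Percent control is scored nine days after treatment. Plants go into about 2 inches of soil at the 1-2 inch stage and are flooded to about 1 inch, then test compound in acetone concentrate is injected into the standing water at a volume chosen for the desired concentration.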
# barnyardgrass [3] = assay: Preemergent control of plant species; assay type: in vivo, Echinochloa crusgalli; details: Echinochloa crus-galli, pre-emergence, 336 h; 0.25 lb/acre; read-out: percent preemergent control
# In short: (§3)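 Seeds planted in good agricultural soil beds; active ingredients then applied to the bed surface as aqueous emulsion at listed rates. Beds kept two weeks in greenhouse with watering. Control scored against water-treated beds.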
# soybean = assay: Preemergent control of plant species; assay type: in vivo, Glycine max.; details: Glycine max, pre-emergence, 336 h; 0.25 lb/acre; read-out: percent preemergent control
# In short: as §3
# corn [4] = assay: Preemergent control of plant species; assay type: in vivo, Zea mays; details: Zea mays, pre-emergence, 336 h; 0.25 lb/acre; read-out: percent preemergent control
# In short: as §3
# rape = assay: Preemergent control of plant species; assay type: in vivo, Brassica napus; details: Brassica napus, pre-emergence, 336 h; 0.25 lb/acre; read-out: percent preemergent control
# In short: as §3
# sprangletop = assay: Control of aquatic plant species (paddy water); assay type: in vivo, Leptochloa filiformis; details: Leptochloa filiformis, 216 h; 1.0 Kg/Ha, nine days; read-out: Percent control
# In short: as §2
# rice [5] = assay: Control of aquatic plant species (paddy water); assay type: in vivo, Oryza sativa; details: Oryza sativa, 216 h; 1.0 Kg/Ha, nine days; read-out: Percent control
# In short: as §2
# crabgrass [6] = assay: Preemergent control of plant species; assay type: in vivo, Digitaria spp.; details: Digitaria sanguinalis, pre-emergence, 336 h; 0.25 lb/acre; read-out: percent preemergent control
# In short: as §3
# rice [7] = assay: Postemergent control of plant species; assay type: in vivo, Oryza sativa; details: Oryza sativa, post-emergence, 336 h, read-out: percent postemergent control
# In short: as §1
# velvetleaf = assay: Preemergent control of plant species; assay type: in vivo, Abutilon theophrasti; details: Abutilon theophrasti, pre-emergence, 336 h; 0.25 lb/acre; read-out: percent preemergent control
# In short: as §3
# [8] = system: annual sugar beet variety (SLC03); assay: Plant growth regulator activity, postemergence; assay type: in vivo; details: Beta vulgaris, post-emergence, 672 h, 4 weeks after spraying; read-out: Bolting Inhibition (postemergence), concentration with observed effect
# From the text: Using a regular biennial variety, even a bolting-susceptible variety would require a cold treatment of around 10-16 weeks plus a hormone treatement in conjunction with specific light intensities. Thus, for a screening organism, we selected one which would consistently produce bolting on a regular schedule. The screen is run with an annual sugar beet variety (SLC03) provided by Dr. Richard J. Hecker, Fort Collins, Colo. This variety is an inbred which bolts in the 6- to 8-leaf stage without any need for vernalization. This allows the screen to be run entirely in the greenhouse with all 110 chemical compounds tested on one tray. The sugarbeets are grown in 3×3 inch square pots in a greenhouse sandy loam potting mix. The sugarbeets are sprayed with test compounds when they are 2 to 3 weeks old (2 true leaves). The compounds are dissolved in acetone and diluted with water containing Tween 20 as a wetting agent. The concentration of acetone in the final spray is 20% and the concentration of Tween 20 is 0.05 percent. The plants are examined for the appearance of a bolt 4 weeks after spraying.
# corn [9] = assay: Postemergent control of plant species; assay type: in vivo, Zea mays; details: Zea mays, post-emergence, 336 h, read-out: percent postemergent control
# In short: as §1
# yellow foxtail = assay: Preemergent control of plant species; assay type: in vivo, Setaria lutescens; details: Setaria, pre-emergence, 336 h; 0.25 lb/acre; read-out: percent preemergent control
# In short: as §3
# crabgrass [10] = assay: Postemergent control of plant species; assay type: in vivo, Digitaria spp.; details: Digitaria sanguinalis, post-emergence, 336 h, read-out: percent postemergent control
# In short: as §1
# annual morning glory [11] = assay: Preemergent control of plant species; assay type: in vivo, Ipomoea spp.; details: Ipomoea, pre-emergence, 336 h; 0.25 lb/acre; read-out: percent preemergent control
# In short: as §3
# cotton = assay: Postemergent control of plant species; assay type: in vivo, Gossypium spp.; details: Gossypium hirsutum, post-emergence, 336 h, read-out: percent postemergent control
# In short: as §1
# sorghum = assay: Preemergent control of plant species; assay type: in vivo, Sorghum vulgare; details: Sorghum, pre-emergence, 336 h; 0.25 lb/acre; read-out: percent preemergent control
# In short: as §3
Compound,pest or weed control at 500 ppm (annual morning glory [1]),pest or weed control at 1000 g/ha (barnyardgrass [2]),pest or weed control at 1000 g/ha (yellow nutsedge),pest or weed control at 280.212 g/ha (barnyardgrass [3]),plant injury at 280.212 g/ha (soybean),plant injury at 280.212 g/ha (corn [4]),plant injury at 280.212 g/ha (rape),pest or weed control at 1000 g/ha (sprangletop),pest or weed control at 1000 g/ha (rice [5]),pest or weed control at 280.212 g/ha (crabgrass [6]),plant injury at 500 ppm (rice [7]),pest or weed control at 280.212 g/ha (velvetleaf),minimal effective concentration [8],plant injury at 500 ppm (corn [9]),pest or weed control at 280.212 g/ha (yellow foxtail),pest or weed control at 500 ppm (crabgrass [10]),pest or weed control at 280.212 g/ha (annual morning glory [11]),plant injury at 500 ppm (cotton),plant injury at 280.212 g/ha (sorghum)
Cc1cc(C)n2nc(S(=O)(=O)Nc3ccccc3F)nc2n1 [Compound 8],70%,99%,93%,75%,95%,80%,100%,0%,97%,70%,40%,60%,50 µg/mL,20%,60%,10%,25%,,
Cc1cc(C)n2nc(S(=O)(=O)Nc3ccccc3I)nc2n1 [Compound 6],80%,99%,90%,80%,10%,0%,100%,20%,93%,0%,20%,60%,,0%,,20%,0%,60%,50%
Cc1cc(C)n2nc(S(=O)(=O)Nc3ccc(Cl)cc3C(F)(F)F)nc2n1 [Compound 34],75%,,,20%,80%,0%,95%,,,0%,0%,80%,,0%,0%,0%,20%,70%,90%
CC(=O)N(c1c(Cl)cccc1Cl)S(=O)(=O)c1nc2nc(C)cc(C)n2n1 [Compound 262],100%,,,90%,100%,80%,100%,,,,40%,100%,,50%,95%,95%,90%,100%,

# — US4740233A, “Substituted 1,2,4-triazolo[1,5-a]-pyrimidine-2-sulfonamides and compositions and methods of controlling undesired vegetation and suppressing the nitrification of ammonium nitrogen in soil” (The Dow Chemical Company, priority 1986, dated 1988)
